Measurements: patent publication US10316035B2, “Triazolopyridine inhibitors of myeloperoxidase” (BRISTOL-MYERS SQUIBB COMPANY, priority 2015, dated 2019)
Counter-ions that a name gives are not always drawn.

Molecular target: T1, myeloperoxidase (MPO) (Homo sapiens, UniProt P05164)
T1 sequence (P05164 49-745): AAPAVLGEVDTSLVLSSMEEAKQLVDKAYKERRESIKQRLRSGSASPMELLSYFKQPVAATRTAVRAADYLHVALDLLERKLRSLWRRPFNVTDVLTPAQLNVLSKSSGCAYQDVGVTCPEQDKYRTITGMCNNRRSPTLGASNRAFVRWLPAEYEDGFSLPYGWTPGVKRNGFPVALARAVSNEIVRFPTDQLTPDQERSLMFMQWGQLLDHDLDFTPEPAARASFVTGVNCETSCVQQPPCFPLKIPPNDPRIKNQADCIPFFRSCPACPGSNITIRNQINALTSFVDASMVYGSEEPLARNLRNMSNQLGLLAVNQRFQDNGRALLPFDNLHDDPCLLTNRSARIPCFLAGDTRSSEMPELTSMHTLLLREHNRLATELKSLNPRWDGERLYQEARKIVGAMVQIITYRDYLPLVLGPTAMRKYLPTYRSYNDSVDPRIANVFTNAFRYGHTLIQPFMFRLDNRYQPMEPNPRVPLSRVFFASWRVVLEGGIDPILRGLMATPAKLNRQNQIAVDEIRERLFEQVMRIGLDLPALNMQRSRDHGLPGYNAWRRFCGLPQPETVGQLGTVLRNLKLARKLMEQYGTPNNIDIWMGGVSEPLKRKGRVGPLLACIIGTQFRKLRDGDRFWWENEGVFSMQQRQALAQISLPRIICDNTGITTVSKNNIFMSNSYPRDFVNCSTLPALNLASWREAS
Test: MPO peroxidation assay (Amplex Red assay)
Type: biochemical
Conditions: not given
Summary of the method: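 Peroxidase turnover of Amplex Red to fluorescent resorufin (Ex 535/Em 590 nm) was followed for 15 min in 100 mM KPi, pH 7.4, after 10 min room-temperature preincubation of compound with 200 pM enzyme plus 40 nM H2O2. The substrate mix contained 200 μM Amplex Red and 10 mM H2O2. IC50s came from linear-phase rates (180–540 s) fitted with a Hill equation.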

SMILES	IC50 [nM]
Cn1ccc(-c2cccc(COc3cc(N)nc4[nH]nnc34)c2)n1 [Example 5, 7-(3-(1-Methyl-1H-pyrazol-3-yl)benzyloxy)-3H-[1,2,3]triazolo[4,5-b]pyridin-5-amine]	1 to 100
Nc1cc(OCc2cccc(-c3ccccc3F)c2)c2nn[nH]c2n1 [Example 96, 7-((2′-Fluorobiphenyl-3-yl)methoxy)-3H-[1,2,3]triazolo[4,5-b]pyridin-5-amine]	1 to 100
Cn1cc(-c2cccc(COc3cc(N)nc4[nH]nnc34)c2)cn1 [Example 77, 7-(3-(1-Methyl-1H-pyrazol-4-yl)benzyloxy)-3H-[1,2,3]triazolo[4,5-b]pyridin-5-amine]	1 to 100

Second part, the molecule after the results:

IC50 [nM]	SMILES
1 to 100	Nc1cc(OCc2cc(-c3cccc(F)c3)ccc2Cl)c2nn[nH]c2n1 [Example 70, 7-((4-Chloro-3′-fluorobiphenyl-3-yl)methoxy)-3H-[1,2,3]triazolo[4,5-b]pyridin-5-amine]
1 to 100	Nc1cc(OCc2ccc(Cl)cc2)c2nn[nH]c2n1 [Example 11, 7-(4-Chlorobenzyloxy)-3H-[1,2,3]triazolo[4,5-b]pyridin-5-amine]

Same assay, conditions: MPO peroxidation, potency range class; read-out: Amplex Red IC50

SMILES	IC50 [nM]
NC(=O)c1ccc(-c2cc(F)c(COc3cc(N)nc4[nH]nnc34)c(F)c2)cn1 [Example 341, 5-(4-(((5-amino-3H-[1,2,3]triazolo[4,5-b]pyridin-7-yl)oxy)methyl)-3,5-difluorophenyl) picolinamide]	1 to 100
N#Cc1cc(-c2ccc(N3CCNCC3)nc2)ccc1COc1cc(N)nc2[nH]nnc12 [Example 327, 2-(((5-amino-3H-[1,2,3]triazolo[4,5-b]pyridin-7-yl)oxy)methyl)-5-(6-(piperazin-1-yl)pyridin-3-yl)benzonitrile]	1 to 100
Cc1cn(-c2ccc(COc3cc(N)nc4[nH]nnc34)c(C#N)c2)cn1 [Example 276, 2-(((5-amino-3H-[1,2,3]triazolo[4,5-b]pyridin-7-yl)oxy)methyl)-5-(4-methyl-1H-imidazol-1-yl)benzonitrile]	101 to 999
CS(=O)(=O)c1ccc(COc2cc(N)nc3[nH]nnc23)c(Cl)c1 [Example 246, 7-((2-chloro-4-(methylsulfonyl)benzyl)oxy)-3H-[1,2,3]triazolo[4,5-b]pyridin-5-amine]	101 to 999
Nc1cc(OCc2ccc(-n3cccn3)cc2OC(F)(F)F)c2nn[nH]c2n1 [Example 257]	1 to 100
Nc1cc(OCc2c(F)cc(-c3ccc(F)nc3F)cc2F)c2nn[nH]c2n1 [Example 340, 7-((4-(2,6-difluoropyridin-3-yl)-2,6-difluorobenzyl)oxy)-3H-[1,2,3]triazolo[4,5-b]pyridin-5-amine]	101 to 999
Cc1cn(-c2cccc(COc3cc(N)nc4[nH]nnc34)c2)cn1 [Example 84, 7-(3-(4-Methyl-1H-imidazol-1-yl)benzyloxy)-3H-[1,2,3]triazolo[4,5-b]pyridin-5-amine]	101 to 999
Nc1cc(OCc2cc(C(=O)NCc3ccccc3)ccc2Cl)c2nn[nH]c2n1 [Example 173, 3-((5-amino-3H-[1,2,3]triazolo [4,5-b]pyridin-7-yloxy)methyl)-N-benzyl-4-chlorobenzamide]	1 to 100
Nc1cc(OCc2cc(C(=O)NCCCN3CCCC3=O)ccc2F)c2nn[nH]c2n1 [Example 156, 3-((5-amino-3H-[1,2,3]triazolo[4,5-b]pyridin-7-yloxy)methyl)-4-fluoro-N-(3-(2-oxopyrrolidin-1-yl)propyl) benzamide]	101 to 999
COc1ccc(-n2cnc(C)n2)cc1COc1cc(N)nc2[nH]nnc12 [Example 87, 7-(2-Methoxy-5-(3-methyl-1H-1,2,4-triazol-1-yl)benzyloxy)-3H-[1,2,3]triazolo[4,5-b]pyridin-5-amine]	1000 to 10000
COc1ccc(-c2cc(F)c(COc3cc(N)nc4[nH]nnc34)c(F)c2)cn1 [Example 333, 7-((2,6-difluoro-4-(6-methoxypyridin-3-yl)benzyl)oxy)-3H-[1,2,3]triazolo[4,5-b] pyridin-5-amine]	1 to 100
CN(C(=O)c1ccc(F)c(COc2cc(N)nc3[nH]nnc23)c1)c1ccccc1 [Example 159, 3-((5-amino-3H-[1,2,3]triazolo[4,5-b]pyridin-7-yloxy)methyl)-4-fluoro-N-methyl-N-phenylbenzamide]	1 to 100
Nc1cc(OCc2cc(C(=O)N3CCCC3)ccc2F)c2nn[nH]c2n1 [Example 152, (3-((5-amino-3H-[1,2,3]triazolo[4,5-b]pyridin-7-yloxy)methyl)-4-fluorophenyl)(pyrrolidin-1-yl)methanone]	101 to 999
Nc1cc(OCc2cccc(SC(F)(F)F)c2)c2nn[nH]c2n1 [Example 248, 7-((3-((trifluoromethyl)thio)benzyl)oxy)-3H-[1,2,3]triazolo[4,5-b]pyridin-5-amine]	1 to 100
Nc1cc(OCc2cc(Cl)ccc2S(=O)(=O)Cc2ccccc2)c2nn[nH]c2n1 [Example 228, 7-((2-(Benzylsulfonyl)-5-chlorobenzyl)oxy)-3H-[1,2,3]triazolo[4,5-b]pyridin-5-amine, TFA]	101 to 999
CC(NC(=O)c1ccc(F)c(COc2cc(N)nc3[nH]nnc23)c1)c1ccccc1 (stereo not drawn) [Example 157, 3-((5-amino-3H-[1,2,3]triazolo[4,5-b]pyridin-7-yloxy)methyl)-4-fluoro-N-(1-phenylethyl)benzamide]	1 to 100
CS(=O)(=O)c1ccc(COc2cc(N)nc3[nH]nnc23)c([N+](=O)[O-])c1 [Example 250, 7-((4-(methylsulfonyl)-2-nitrobenzyl)oxy)-3H-[1,2,3]triazolo[4,5-b]pyridin-5-amine]	101 to 999
Nc1cc(OCc2c(Cl)cccc2OC(F)(F)F)c2nn[nH]c2n1 [Example 31, 7-(2-Chloro-6-(trifluoromethoxy)benzyloxy)-3H-[1,2,3]triazolo[4,5-b]pyridin-5-amine]	1 to 100
N#Cc1ccccc1COc1cc(N)nc2[nH]nnc12 [Example 247, 2-(((5-amino-3H-[1,2,3]triazolo[4,5-b]pyridin-7-yl)oxy)methyl)benzonitrile]	1 to 100

Continued, values first:

IC50 [nM]	SMILES
1 to 100	COc1cc(-c2ccc(COc3cc(N)nc4[nH]nnc34)c(OC(F)(F)F)c2)c(F)cn1 [Example 309, 7-((4-(5-fluoro-2-methoxypyridin-4-yl)-2-(trifluoromethoxy)benzyl)oxy)-3H-[1,2,3] triazolo[4,5-b]pyridin-5-amine]
1 to 100	Nc1cc(OCc2cc(C(=O)NC3CC3)ccc2F)c2nn[nH]c2n1 [Example 48, 3-((5-Amino-3H-[1,2,3]triazolo[4,5-b]pyridin-7-yloxy)methyl)-N-cyclopropyl-4-fluorobenzamide]
101 to 999	NC(=O)C1CCN(C(=O)c2ccc(COc3cc(N)nc4[nH]nnc34)c(Cl)c2)CC1 [Example 220, 1-(4-((5-amino-3H-[1,2,3]triazolo [4,5-b]pyridin-7-yloxy)methyl)-3-chlorobenzoyl)piperidine-4-carboxamide]
101 to 999	CCN(C)C(=O)c1ccc(-c2ccc(COc3cc(N)nc4[nH]nnc34)cc2)cc1F [Example 107, 4′-((5-Amino-3H-[1,2,3]triazolo[4,5-b]pyridin-7-yloxy)methyl)-N-ethyl-3-fluoro-N-methylbiphenyl-4-carboxamide]
1 to 100	CSc1ccc(-c2ccc(COc3cc(N)nc4[nH]nnc34)c(OC(F)(F)F)c2)cn1 [Example 289, 7-((4-(6-(methylthio)pyridin-3-yl)-2-(trifluoromethoxy)benzyl)oxy)-3H-[1,2,3] triazolo[4,5-b]pyridin-5-amine]
1 to 100	CN1CCN(c2ccc(-c3ccc(COc4cc(N)nc5[nH]nnc45)c(C#N)c3)cn2)CC1 [Example 319, 2-(((5-amino-3H-[1,2,3]triazolo[4,5-b]pyridin-7-yl)oxy)methyl)-5-(6-(4-methylpiperazin-1-yl)pyridin-3-yl)benzonitrile]
101 to 999	Nc1cc(OCc2ccc(C(=O)N3CCCCC3c3ccccc3)cc2Cl)c2nn[nH]c2n1 (stereo not drawn) [Example 206]
1 to 100	Nc1cc(OCc2ccc(C(=O)NCc3ccccc3)cc2Cl)c2nn[nH]c2n1 [Example 196, 4-((5-amino-3H-[1,2,3]triazolo[4,5-b]pyridin-7-yloxy)methyl)-N-benzyl-3-chlorobenzamide]
1 to 100	Nc1cc(OCc2cc(OC(F)(F)F)ccc2F)c2nn[nH]c2n1 [Example 27, 7-(2-Fluoro-5-(trifluoromethoxy)benzyloxy)-3H-[1,2,3]triazolo[4,5-b]pyridin-5-amine]
101 to 999	Nc1cc(OCC2CCCCC2)c2nn[nH]c2n1 [Example 132, 7-(Cyclohexylmethoxy)-3H-[1,2,3]triazolo[4,5-b]pyridin-5-amine]
1 to 100	COC(=O)c1ccc(Cl)c(COc2cc(N)nc3[nH]nnc23)c1 [Example 171, Methyl 3-((5-amino-3H-[1,2,3]triazolo[4,5-b]pyridin-7-yloxy)methyl)-4-chlorobenzoate]
101 to 999	Nc1cc(OCc2cccc(Oc3ccccc3)c2)c2nn[nH]c2n1 [Example 16, 7-(3-Phenoxybenzyloxy)-3H-[1,2,3]triazolo[4,5-b]pyridin-5-amine]
